Test results reported in patent US5567692A, “9-[(substituted glycyl) amido)]-6-demethyl-6-deoxytetracyclines” (priority 1995, dated 1996).
Structures can show the parent of a compound that is named as a salt. Where two headings read alike, the source gives them in different places.

Assays:
Type in all cases: cell-based
E. coli J3272 Tet D = assay: microbe, parasite or virus in culture; settings: Escherichia coli, J3272TETD, 18 h
S. aureus UBMS 90-3 = assay: MIC, agar dilution; settings: Staphylococcus aureus, UBMS903, 18 h
E. coli J2175 = assay: MIC, agar dilution; settings: Escherichia coli, 18 h, read-out: MIC
[1] = test system: Ps. aeruginosa ATCC 27853; assay: MIC, agar dilution; settings: Pseudomonas aeruginosa, ATCC27853, 18 h
S. marcescens FPOR 8733 = assay: MIC, agar dilution; settings: Serratia marcescens, FPOR8733, 18 h
[2] = test system: X. maltophilia NEMC 87210; assay: MIC, agar dilution; settings: Stenotrophomonas maltophilia, NEMC87210, 18 h
[3] = test system: S. aureus UBMS 90-2 Tet M; assay: microbe, parasite or virus in culture; settings: Staphylococcus aureus, UBMS902TETM, 18 h
[4] = test system: S. aureus UBMS 88-7 Tet K; assay: microbe, parasite or virus in culture; settings: Staphylococcus aureus, UBMS887TETK, 18 h
E. coli BAJ9003 IMP MUT = assay: microbe, parasite or virus in culture; settings: Escherichia coli, BAJ9003IMPMUT, 18 h
S. aureus ATCC 29213 = assay: MIC, agar dilution; settings: Staphylococcus aureus, ATCC29213, 18 h, S. aureus ATCC 29213
E. coli J3272 Tet C = assay: microbe, parasite or virus in culture; settings: Escherichia coli, J3272TETC, 18 h
[5] = test system: E. coli MC 4100 Tet sens.; assay: MIC, agar dilution; settings: Escherichia coli, 18 h
[6] = test system: S. aureus UBMS 88-5 Tet M; assay: microbe, parasite or virus in culture; settings: Staphylococcus aureus, UBMS885TETM, 18 h
S. aureus NEMC 8769 = assay: MIC, agar dilution; settings: Staphylococcus aureus, NEMC8769, 18 h
S. aureus UBMS 88-4 = assay: MIC, agar dilution; settings: Staphylococcus aureus, UBMS884, 18 h
S. aureus SMITH (MP) = assay: MIC, agar dilution; settings: Staphylococcus aureus, 18 h
[7] = test system: E. coli MC 4100 TNIOC Tet B; assay: microbe, parasite or virus in culture; settings: Escherichia coli, 18 h
S. aureus IVES 1983 = assay: MIC, agar dilution; settings: Staphylococcus aureus, IVES1983, 18 h
Enterococcus 12201 = assay: MIC, agar dilution; settings: Enterococcus, 12201, 18 h
E. coli ATCC 25922 = assay: MIC, agar dilution; settings: Escherichia coli, ATCC25922, 18 h
S. aureus IVES 2943 = assay: MIC, agar dilution; settings: Staphylococcus aureus, IVES2943, 18 h
E. coli UBMS 88-1 Tet B = assay: microbe, parasite or virus in culture; settings: Escherichia coli, UBMS881TETB, 18 h
E. coli UBMS 90-5 = assay: microbe, parasite or virus in culture; settings: Escherichia coli, UBMS905, 18 h
E. coli #311 (MP) = assay: MIC, agar dilution; settings: Escherichia coli, 18 h
S. aureus ROSE (MP) = assay: MIC, agar dilution; settings: Staphylococcus aureus, 18 h
E. coli UBMS 90-4 Tet M = assay: microbe, parasite or virus in culture; settings: Escherichia coli, UBMS904TETM, 18 h
[8] = test system: S. hemolyticus AVHAH 88-3; assay: MIC, agar dilution; settings: Streptococcus pyogenes, AVHAH883, 18 h
E. coli PRP1 Tet A = assay: microbe, parasite or virus in culture; settings: Escherichia coli, PRP1TETA, 18 h
E. coli UBMS 89-1 Tet M = assay: microbe, parasite or virus in culture; settings: Escherichia coli, UBMS891TETM, 18 h
[9] = test system: S. aureus UBMS 90-1 Tet M; assay: microbe, parasite or virus in culture; settings: Staphylococcus aureus, UBMS901TETM, 18 h
E. faecalis ATCC 29212 = assay: MIC, agar dilution; settings: Enterococcus faecalis, ATCC29212, 18 h
[10] = test system: E. coli UBMS 89-2 Tet sens.; assay: MIC, agar dilution; settings: Escherichia coli, 18 h; E. coli UBMS 89-2 Tet sens.; read-out: MIC
[11] = Ps. aeruginosa ATCC 27853, read-out: MIC
[12] = E. coli UBMS 90-5, read-out: MIC
[13] = E. coli #311 (MP), read-out: MIC
[14] = S. aureus IVES 1983, read-out: MIC

## CN(C)[C@@H]1C(O)=C(C(N)=O)C(=O)[C@@]2(O)C(O)=C3C(=O)c4c(ccc(NC(=O)CNCc5cccs5)c4O)CC3CC12 (stereo partly drawn) [L, [4S-(4-alpha,12aalpha)]-4-(Dimethylamino)-1,4,4a,5,5a,6,11,12a-octahydro-3,10,12,12a-tetrahydroxy-1,11-dioxo-9-[[[(2-thienylmethyl)amino]acetyl]amino]-2-naphthacenecarboxamide dihydrochloride]
E. coli J3272 Tet D
  MIC: 16 µg/mL
S. aureus UBMS 90-3; S. aureus UBMS 90-3
  MIC: 4 µg/mL
E. coli J2175
  MIC: 16 µg/mL
[1]; [11]
  MIC: > 32 µg/mL
S. marcescens FPOR 8733
  MIC: > 32 µg/mL
[2]
  MIC: > 32 µg/mL
[3]
  MIC: 8 µg/mL
[4]
  MIC: 16 µg/mL
E. coli BAJ9003 IMP MUT
  MIC: 4 µg/mL
S. aureus ATCC 29213
  MIC: 8 µg/mL
E. coli J3272 Tet C
  MIC: 32 µg/mL
[5]
  MIC: 8 µg/mL
[6]
  MIC: 8 µg/mL
S. aureus NEMC 8769
  MIC: 8 µg/mL
S. aureus UBMS 88-4
  MIC: 8 µg/mL
S. aureus SMITH (MP); S. aureus SMITH (MP)
  MIC: 4 µg/mL
[7]
  MIC: 32 µg/mL
S. aureus IVES 1983
  MIC: 16 µg/mL
Enterococcus 12201; Enterococcus 12201, read-out: MIC
  MIC: 8 µg/mL
E. coli ATCC 25922
  MIC: 8 µg/mL
S. aureus IVES 2943
  MIC: 16 µg/mL
E. coli UBMS 88-1 Tet B
  MIC: 32 µg/mL
E. coli UBMS 90-5; [12]
  MIC: 16 µg/mL
E. coli #311 (MP); [13]
  MIC: 16 µg/mL
S. aureus ROSE (MP)
  MIC: 32 µg/mL
E. coli UBMS 90-4 Tet M
  MIC: 8 µg/mL
[8]
  MIC: 8 µg/mL
E. coli PRP1 Tet A
  MIC: 16 µg/mL
E. coli UBMS 89-1 Tet M
  MIC: 8 µg/mL
[9]
  MIC: 8 µg/mL

## CN(C)[C@@H]1C(O)=C(C(N)=O)C(=O)[C@@]2(O)C(O)=C3C(=O)c4c(ccc(NC(=O)CNCc5ccccc5)c4O)CC3CC12 (stereo partly drawn) [J, [4S-(4alpha,12aalpha)]-4-(Dimethylamino)-1,4,4a,5,5a,6,11,12a-octahydro-3,10,12,12a-tetrahydroxy-1,11-dioxo-9-[[[(phenylmethyl)amino]acetyl]amino]-2-naphthacenecarboxamide dihydrochloride]
E. coli J3272 Tet D
  MIC: 4 µg/mL
S. aureus UBMS 90-3
  MIC: 0.5 µg/mL
E. coli J2175
  MIC: 4 µg/mL
[1]
  MIC: > 32 µg/mL
S. marcescens FPOR 8733; read-out: MIC
  MIC: > 32 µg/mL
[2]
  MIC: 16 µg/mL
[3]
  MIC: 1 µg/mL
[4]
  MIC: 4 µg/mL
E. coli BAJ9003 IMP MUT
  MIC: 0.5 µg/mL
S. aureus ATCC 29213
  MIC: 1 µg/mL
E. coli J3272 Tet C
  MIC: 4 µg/mL
[5]
  MIC: 0.5 µg/mL
E. faecalis ATCC 29212
  MIC: 0.25 µg/mL
[6]
  MIC: 2 µg/mL
S. aureus NEMC 8769
  MIC: 1 µg/mL
S. aureus UBMS 88-4
  MIC: 1 µg/mL
S. aureus SMITH (MP)
  MIC: 0.5 µg/mL
S. aureus IVES 1983; [14]
  MIC: 4 µg/mL
Enterococcus 12201
  MIC: 2 µg/mL
E. coli ATCC 25922; read-out: MIC
  MIC: 4 µg/mL
S. aureus IVES 2943; S. aureus IVES 2943, read-out: MIC
  MIC: 4 µg/mL
E. coli UBMS 88-1 Tet B
  MIC: 4 µg/mL
E. coli UBMS 90-5; [12]
  MIC: 4 µg/mL
E. coli #311 (MP); [13]
  MIC: 4 µg/mL
S. aureus ROSE (MP); read-out: MIC
  MIC: 8 µg/mL
E. coli UBMS 90-4 Tet M
  MIC: 4 µg/mL
[8]; S. hemolyticus AVHAH 88-3, read-out: MIC
  MIC: 4 µg/mL
E. coli PRP1 Tet A
  MIC: 4 µg/mL
E. coli UBMS 89-1 Tet M
  MIC: 2 µg/mL
[9]
  MIC: 4 µg/mL

## CNCC(=O)Nc1ccc2c(c1O)C(=O)C1=C(O)[C@]3(O)C(=O)C(C(N)=O)=C(O)[C@@H](N(C)C)C3CC1C2 (stereo partly drawn) [F, [4S-(4alpha,12aalpha)]-4-(Dimethylamino)-1,4,4a,5,5a,6,11,12a-octahydro-3,10,12,12a-tetrahydroxy-9-[[(methylamino)acetyl]amino]-1,11-dioxo-2-naphthacenecarboxamide dihydrochloride]
E. coli J3272 Tet D
  MIC: 0.5 µg/mL
S. aureus UBMS 90-3
  MIC: 0.5 µg/mL
E. coli J2175
  MIC: 0.5 µg/mL
[1]; [11]
  MIC: 32 µg/mL
S. marcescens FPOR 8733
  MIC: 4 µg/mL
[2]
  MIC: 16 µg/mL
[3]
  MIC: 0.5 µg/mL
[4]
  MIC: 16 µg/mL
E. coli BAJ9003 IMP MUT
  MIC: 0.5 µg/mL
S. aureus ATCC 29213
  MIC: 0.5 µg/mL
[10]
  MIC: 1 µg/mL
E. coli J3272 Tet C
  MIC: 4 µg/mL
E. faecalis ATCC 29212
  MIC: 0.5 µg/mL
[6]
  MIC: 1 µg/mL
S. aureus NEMC 8769
  MIC: 0.25 µg/mL
S. aureus UBMS 88-4
  MIC: 0.5 µg/mL
S. aureus SMITH (MP)
  MIC: 0.5 µg/mL
S. aureus IVES 1983; [14]
  MIC: 16 µg/mL
Enterococcus 12201
  MIC: 0.5 µg/mL
E. coli ATCC 25922; read-out: MIC
  MIC: 0.5 µg/mL
S. aureus IVES 2943
  MIC: > 32 µg/mL
E. coli UBMS 88-1 Tet B
  MIC: 1 µg/mL
E. coli UBMS 90-5; [12]
  MIC: 0.5 µg/mL
E. coli #311 (MP); [13]
  MIC: 0.5 µg/mL
S. aureus ROSE (MP)
  MIC: > 32 µg/mL
E. coli UBMS 90-4 Tet M
  MIC: 0.5 µg/mL
[8]
  MIC: 1 µg/mL
E. coli PRP1 Tet A
  MIC: 4 µg/mL
E. coli UBMS 89-1 Tet M
  MIC: 0.5 µg/mL
[9]
  MIC: 0.5 µg/mL

## CCCCCNCC(=O)Nc1ccc2c(c1O)C(=O)C1=C(O)[C@]3(O)C(=O)C(C(N)=O)=C(O)[C@@H](N(C)C)C3CC1C2 (stereo partly drawn) [K, [4S-(4alpha,12aalpha)]-4-(Dimethylamino)-1,4,4a,5,5a,6,11,12a-octahydro-3,10,12,12a-tetrahydroxy-1,11-dioxo-9-[[(pentylamino)acetyl]amino]-2-naphthacenecarboxamide monohydrochloride]
E. coli J3272 Tet D
  MIC: 0.5 µg/mL
E. coli J2175
  MIC: 0.5 µg/mL
[1]; [11]
  MIC: 32 µg/mL
S. marcescens FPOR 8733; read-out: MIC
  MIC: 4 µg/mL
[2]
  MIC: 1 µg/mL
[4]
  MIC: 2 µg/mL
S. aureus ATCC 29213; read-out: MIC
  MIC: 0.5 µg/mL
E. coli J3272 Tet C
  MIC: 0.5 µg/mL
[5]
  MIC: 0.5 µg/mL
[6]; S. aureus UBMS 88-5 Tet M
  MIC: 0.5 µg/mL
S. aureus NEMC 8769
  MIC: 0.12 µg/mL
[7]
  MIC: 0.5 µg/mL
S. aureus IVES 1983
  MIC: 2 µg/mL
E. coli ATCC 25922
  MIC: 0.5 µg/mL
S. aureus IVES 2943
  MIC: 2 µg/mL
E. coli UBMS 88-1 Tet B
  MIC: 1 µg/mL
E. coli UBMS 90-5
  MIC: 0.5 µg/mL
E. coli #311 (MP)
  MIC: 0.5 µg/mL
S. aureus ROSE (MP); read-out: MIC
  MIC: 8 µg/mL
E. coli UBMS 90-4 Tet M; E. coli UBMS 90-4 Tet M
  MIC: 0.5 µg/mL
[8]
  MIC: 2 µg/mL
E. coli PRP1 Tet A
  MIC: 0.5 µg/mL
[9]; S. aureus UBMS 90-1 Tet M
  MIC: 0.5 µg/mL
